According to US3960877A, “N-monosubstituted-2,3-pyridinedicarboxamides, and related compounds” (priority 1974, dated 1976):

How the values were obtained:
Type in all cases: in vivo
[1] = system: Alfalfa; assay: Preemergence herbicidal activity, % control of plant growth; conditions: Medicago sativa, pre-emergence, 504 h, 16 lb/acre, about 3 weeks
From the text: (§1) By "preemergence" is meant that the compound is applied to the soil prior to emergence of the weed species sought to be controlled. This term, as used herein, also means the application of the herbicidal compounds falling within the scope of this disclosure to areas wherein useful or desirable plants are either growing or have been sown, but where the undesirable plants sought to be controlled have not as yet emerged.
(§2) In using the compound, seeds of the types of plants set forth in Table II were sown in fresh soil. In the preemergence test the soil was sprayed with a solution of the test compound immediately after the seeds were planted, and before any noticeable growth developed. The solution was about a 2 percent by weight solution of the compound in acetone and/or alcohol. The compound was applied at the rate of 16 pounds per acre of soil surface.
(§3) Approximately 3 weeks after spray application, the herbicidal activity of the compound was determined by visual observation of the treated area in comparison with untreated control areas. These observations are reported below in Table II wherein the average activity rating is reported as the percent control of plant growth.
(§4) *Preemergence test: compound applied at rate of 16 lb/acre

[2] = system: Cheatgrass; assay: as above; conditions: Bromus tectorum, pre-emergence, 504 h, 16 lb/acre, about 3 weeks
From the text: as §1, §2, §3, §4

[3] = system: Chickweed; assay: as above; conditions: pre-emergence, 504 h, 16 lb/acre, about 3 weeks
From the text: as §1, §2, §3, §4

[4] = system: Corn; assay: as above; conditions: Zea mays, pre-emergence, 504 h, 16 lb/acre, about 3 weeks
From the text: as §1, §2, §3, §4

[5] = system: Crabgrass; assay: as above; conditions: Digitaria sanguinalis, pre-emergence, 504 h, 16 lb/acre, about 3 weeks
From the text: as §1, §2, §3, §4

[6] = system: Cucumber; assay: as above; conditions: Cucumis sativus, pre-emergence, 504 h, 16 lb/acre, about 3 weeks
From the text: as §1, §2, §3, §4

[7] = system: Curled Dock; assay: as above; conditions: pre-emergence, 504 h, 16 lb/acre, about 3 weeks
From the text: as §1, §2, §3, §4

[8] = system: Foxtail; assay: as above; conditions: Setaria, pre-emergence, 504 h, 16 lb/acre, about 3 weeks
From the text: as §1, §2, §3, §4

[9] = system: Johnsongrass; assay: as above; conditions: Sorghum halepense, pre-emergence, 504 h, 16 lb/acre, about 3 weeks
From the text: as §1, §2, §3, §4

[10] = system: Lambsquarters; assay: as above; conditions: Chenopodium album, pre-emergence, 504 h, 16 lb/acre, about 3 weeks
From the text: as §1, §2, §3, §4

[11] = system: Nutgrass; assay: as above; conditions: pre-emergence, 504 h, 16 lb/acre, about 3 weeks
From the text: as §1, §2, §3, §4

[12] = system: Pigweed; assay: as above; conditions: Amaranthus retroflexus, pre-emergence, 504 h, 16 lb/acre, about 3 weeks
From the text: as §1, §2, §3, §4

[13] = system: Snapbeans; assay: as above; conditions: pre-emergence, 504 h, 16 lb/acre, about 3 weeks
From the text: as §1, §2, §3, §4

[14] = system: Velvetleaf; assay: as above; conditions: Abutilon theophrasti, pre-emergence, 504 h, 16 lb/acre, about 3 weeks
From the text: as §1, §2, §3, §4

[15] = system: Wild Oats; assay: as above; conditions: Avena fatua, pre-emergence, 504 h, 16 lb/acre, about 3 weeks
From the text: as §1, §2, §3, §4

[16] = system: Yellow Rocket; assay: as above; conditions: pre-emergence, 504 h, 16 lb/acre, about 3 weeks
From the text: as §1, §2, §3, §4

[17] = system: Alfalfa; assay: Postemergence herbicidal activity, % control of plant growth; conditions: Medicago sativa, post-emergence, 264 h, 8 lb/acre, about 11 days
From the text: (§5) By the term "postemergence" is meant that the compound is applied to the plant sought to be controlled after it has emerged from the soil surface. This term is also used to describe the application of herbicidally active compounds to soil surface in and around growing plants sought to be controlled for purposes of effecting root absorption by the undesirable plant species.
(§6) In the postemergence test the soil and developing plants were sprayed approximately 2 weeks after the seeds were sown. The compound was applied at the rate of 8 pounds per acre from about a 2 percent by weight solution of the test compound in acetone and/or alcohol. The postemergence herbicidal activity was measured in the same way as the preemergence activity; i.e. visual observation approximately 11 days after spraying, and expressed as the percent control of plant growth.
(§7) **Postemergence test: compound applied at rate of 8 lb/acre

[18] = system: Barnyard Grass; assay: as above; conditions: Echinochloa crus-galli, post-emergence, 264 h, 8 lb/acre, about 11 days
From the text: as §5, §6, §7

[19] = system: Cheatgrass; assay: as above; conditions: Bromus tectorum, post-emergence, 264 h, 8 lb/acre, about 11 days
From the text: as §5, §6, §7

[20] = system: Chickweed; assay: as above; conditions: post-emergence, 264 h, 8 lb/acre, about 11 days
From the text: as §5, §6, §7

[21] = system: Corn; assay: as above; conditions: Zea mays, post-emergence, 264 h, 8 lb/acre, about 11 days
From the text: as §5, §6, §7

[22] = system: Crabgrass; assay: as above; conditions: Digitaria sanguinalis, post-emergence, 264 h, 8 lb/acre, about 11 days
From the text: as §5, §6, §7

[23] = system: Cucumber; assay: as above; conditions: Cucumis sativus, post-emergence, 264 h, 8 lb/acre, about 11 days
From the text: as §5, §6, §7

[24] = system: Curled Dock; assay: as above; conditions: post-emergence, 264 h, 8 lb/acre, about 11 days
From the text: as §5, §6, §7

[25] = system: Foxtail; assay: as above; conditions: Setaria, post-emergence, 264 h, 8 lb/acre, about 11 days
From the text: as §5, §6, §7

[26] = system: Johnsongrass; assay: as above; conditions: Sorghum halepense, post-emergence, 264 h, 8 lb/acre, about 11 days
From the text: as §5, §6, §7

[27] = system: Lambsquarters; assay: as above; conditions: Chenopodium album, post-emergence, 264 h, 8 lb/acre, about 11 days
From the text: as §5, §6, §7

[28] = system: Nutgrass; assay: as above; conditions: post-emergence, 264 h, 8 lb/acre, about 11 days
From the text: as §5, §6, §7

[29] = system: Pigweed; assay: as above; conditions: Amaranthus retroflexus, post-emergence, 264 h, 8 lb/acre, about 11 days
From the text: as §5, §6, §7

[30] = system: Snapbeans; assay: as above; conditions: post-emergence, 264 h, 8 lb/acre, about 11 days
From the text: as §5, §6, §7

[31] = system: Velvetleaf; assay: as above; conditions: Abutilon theophrasti, post-emergence, 264 h, 8 lb/acre, about 11 days
From the text: as §5, §6, §7

[32] = system: Wild Oats; assay: as above; conditions: Avena fatua, post-emergence, 264 h, 8 lb/acre, about 11 days
From the text: as §5, §6, §7

[33] = system: Yellow Rocket; assay: as above; conditions: post-emergence, 264 h, 8 lb/acre, about 11 days
From the text: as §5, §6, §7

[34] = system: Barnyard Grass; assay: Preemergence herbicidal activity, % control of plant growth; conditions: Echinochloa crus-galli, pre-emergence, 504 h; barnyard grass; 16 lb/acre; about 3 weeks
From the text: as §1, §2, §3, §4

SMILES | pest or weed control at 17933.6 g/ha [1] [%] | pest or weed control at 17933.6 g/ha [2] [%] | pest or weed control at 17933.6 g/ha [3] [%] | plant injury at 17933.6 g/ha [4] [%] | pest or weed control at 17933.6 g/ha [5] [%] | pest or weed control at 17933.6 g/ha [6] [%] | pest or weed control at 17933.6 g/ha [7] [%] | pest or weed control at 17933.6 g/ha [8] [%] | pest or weed control at 17933.6 g/ha [9] [%] | pest or weed control at 17933.6 g/ha [10] [%] | pest or weed control at 17933.6 g/ha [11] [%] | pest or weed control at 17933.6 g/ha [12] [%] | pest or weed control at 17933.6 g/ha [13] [%] | pest or weed control at 17933.6 g/ha [14] [%] | pest or weed control at 17933.6 g/ha [15] [%] | pest or weed control at 17933.6 g/ha [16] [%] | pest or weed control at 8966.8 g/ha [17] [%] | pest or weed control at 8966.8 g/ha [18] [%] | pest or weed control at 8966.8 g/ha [19] [%] | pest or weed control at 8966.8 g/ha [20] [%] | also measured
O=c1[nH]c2cccnc2c(=O)n1C1CCCCCCC1 [3-cyclooctyl-pyrido[3,2-d]pyrimidine-2,4(1H,3H)-dione] | 100 | 100 | 100 | 50 | 100 | 90 | 100 | 100 | 100 | 100 | 20 | 100 | 100 | 100 | 100 | 100 | 60 | 90 | 30 | 100 | plant injury at 8966.8 g/ha [21]: 0%; pest or weed control at 8966.8 g/ha [22]: 100%; pest or weed control at 8966.8 g/ha [23]: 100%; pest or weed control at 8966.8 g/ha [24]: 100%; pest or weed control at 8966.8 g/ha [25]: 80%; pest or weed control at 8966.8 g/ha [26]: 100%; pest or weed control at 8966.8 g/ha [27]: 100%; pest or weed control at 8966.8 g/ha [28]: 40%; pest or weed control at 8966.8 g/ha [29]: 100%; pest or weed control at 8966.8 g/ha [30]: 90%; pest or weed control at 8966.8 g/ha [31]: 100%; pest or weed control at 8966.8 g/ha [32]: 40%; pest or weed control at 8966.8 g/ha [33]: 100%
O=c1[nH]c2cccnc2c(=O)n1C1CC1 [3-cyclopropyl pyrido[3,2-d]pyrimidine-2,4(1H,3H)-dione] | 100 | 100 | 100 | 10 | 100 | 100 | 100 | 10 | 10 | 100 | 0 | 100 | 100 | 100 | 80 | 100 | 0 | 0 | 0 | 100 | pest or weed control at 17933.6 g/ha [34]: 10%; plant injury at 8966.8 g/ha [21]: 0%; pest or weed control at 8966.8 g/ha [22]: 10%; pest or weed control at 8966.8 g/ha [23]: 20%; pest or weed control at 8966.8 g/ha [24]: 10%; pest or weed control at 8966.8 g/ha [25]: 0%; pest or weed control at 8966.8 g/ha [26]: 0%; pest or weed control at 8966.8 g/ha [27]: 100%; pest or weed control at 8966.8 g/ha [28]: 0%; pest or weed control at 8966.8 g/ha [29]: 90%; pest or weed control at 8966.8 g/ha [30]: 0%; pest or weed control at 8966.8 g/ha [31]: 0%; pest or weed control at 8966.8 g/ha [33]: 100%
O=c1[nH]c2nccnc2c(=O)n1C1CCCCCCC1 [Lumazine, 3-cyclooctyl] | 100 | 100 | 100 | 30 | 90 | 100 | 100 | 40 | 90 | 100 | 30 | 100 | 100 | 100 | 100 | 100 | 10 | 90 | 0 | 100 | pest or weed control at 17933.6 g/ha [34]: 70%; plant injury at 8966.8 g/ha [21]: 10%; pest or weed control at 8966.8 g/ha [22]: 100%; pest or weed control at 8966.8 g/ha [23]: 100%; pest or weed control at 8966.8 g/ha [24]: 100%; pest or weed control at 8966.8 g/ha [25]: 50%; pest or weed control at 8966.8 g/ha [26]: 100%; pest or weed control at 8966.8 g/ha [27]: 100%; pest or weed control at 8966.8 g/ha [28]: 10%; pest or weed control at 8966.8 g/ha [30]: 100%; pest or weed control at 8966.8 g/ha [31]: 100%; pest or weed control at 8966.8 g/ha [32]: 10%; pest or weed control at 8966.8 g/ha [33]: 100%
CC(C)n1c(=O)[nH]c2nccnc2c1=O [Lumazine, 3-isopropyl] | 100 | 10 | 60 | 10 | 70 | 100 | 100 | 10 | 70 | 100 | 0 | 100 | 90 | 100 | 10 | 100 | 0 | 0 | 0 | 0 | pest or weed control at 17933.6 g/ha [34]: 0%; plant injury at 8966.8 g/ha [21]: 0%; pest or weed control at 8966.8 g/ha [22]: 0%; pest or weed control at 8966.8 g/ha [23]: 10%; pest or weed control at 8966.8 g/ha [24]: 0%; pest or weed control at 8966.8 g/ha [25]: 0%; pest or weed control at 8966.8 g/ha [26]: 0%; pest or weed control at 8966.8 g/ha [27]: 40%; pest or weed control at 8966.8 g/ha [28]: 0%; pest or weed control at 8966.8 g/ha [29]: 0%; pest or weed control at 8966.8 g/ha [30]: 30%; pest or weed control at 8966.8 g/ha [31]: 0%; pest or weed control at 8966.8 g/ha [32]: 0%
